In one data set the target is T1, HIV-1 MA (Human immunodeficiency virus type 1 group M subtype B, UniProt P03348).
T1 construct: His6 (N, cleaved yes); SUMO (N, cleaved yes); made in house; host or cells: Escherichia coli BL21 (DE3) Codon+-RIL
Briefly: Surface plasmon resonance direct binding to immobilized HIV-1 MA. As to conditions: for direct interaction with sensor chip-immobilized HIV-1 MA: CM7 sensor chip, 10 μM (FIG. 14). The text has this: An assay was devised to monitor the interactions of small-molecule compounds to HIV-1 MA using SPR. In this assay, HIV-1LA1 MA was immobilized to the flow cells of a CM5 sensor chip to high density (˜1.3 kRU) or a CM7 sensor chip to high density (19 kRU) using standard amine coupling. A reference surface was similarly created by immobilizing the SUMO protein or a nonspecific antibody ARC4033 (antimouse/rat interferon-γ: BioSource). In small-molecule assays, the buffering system used is important due to the low responses obtained in binding assays. […] A stock solution of the MTI compounds was prepared by dissolving in 100% dimethyl sulfoxide (DMSO) to a final concentration of 10 mM.
To prepare the sample for analysis, 30 μL of the stock solution of the compound of the invention was added to sample preparation buffer (PBS, pH 7.2) to a final volume of 1 mL and mixed thoroughly. Preparation of analyte in this manner ensured that the concentration of DMSO was matched with that of running buffer with 3% DMSO. Lower concentrations of each compound were then prepared by two-fold serial dilutions into running buffer (PBS, 3% DMSO, pH 7.2). These compound dilutions were then injected over the control and MA surfaces at a flow rate of 30 μL min^−, for a 4-min association phase, followed by a 5-min dissociation phase.
In one aspect, owing to the relatively fast dissociation rates of these compounds, regeneration of these surfaces was accomplished by extensive washing of the system followed by a 5 min wait phase, a second wash, and a final 15 min wait phase. To secure complete regeneration, a buffer injection (5 min^on/5 min^off) was performed before each subsequent injection of compound.
Response to a small-molecule compound (NBD-556) specific for HIV-1 gp120 was also monitored to ensure specificity.
Data analysis was performed using BIAEvaluation 4.0 software (GE Healthcare). The responses of a buffer injection and responses from the ARC4033-immobilized reference cell were subtracted to account for nonspecific binding. The average maximum response was generated from a minimum of 3 data sets and was used to define the standard deviation for each compound binding to the HIV-1 MA protein.
The MTI compounds are predicted to interact with HIV-1 MA and thereby disrupt its functioning during the HIV-1 replication cycle. However, it is possible that a compound might exert its action via another mechanism not involving MA. Therefore, studies were performed to determine that the MTI compounds are directed against HIV-1 MA. The direct interaction of compounds CMPD-18, CMPD-17, CMPD-7, and CMPD-14 with HIV-1 MA was assayed using surface plasmon resonance interaction analyses. Wild-type HIV-1 MA protein was overproduced in E. coli using the pETHSUL expression system and purified using successive IMAC strategies, followed by an ion exchange chromatographic step as outlined in Materials and Methods. FIG. 6 illustrates the purification profile of HIV-1 MA. The purified MA was then immobilized onto the surface of a high-capacity CM7 sensor chip. Similarly, the monoclonal antibody ARC4033 (antimouse/rat interferon-γ; BioSource, Invitrogen, Carlsbad, Calif.) was immobilized on a CM7 sensor chip and was used to correct for background binding and instrument and buffer artifacts.
Background: Surface plasmon resonance follows binding to a sensor surface in real time, without labels.

Another data set has as its system HIV-1 Ba-L. Description: Antiviral activity of additional compounds (Tables 6 and 7). The format is cell-based. As to the method:
(§1) HIV human peripheral blood mononuclear cell (PBMC) assays were performed as described previously (Lanier et al., 2010, Antimicrob Agents Chemother 54:2901-2909 and Ptak et al., 2008, Antimicrob Agents Chemother 52:1302-1317). Briefly, fresh PBMCs, seronegative for HIV and hepatitis B virus (HBV), were isolated from blood samples of the screened donors (Biological Specialty Corporation, Colmar, Pa.) by using lymphocyte separation medium (LSM; density, 1.078±0.002 g/ml; Cellgro; Mediatech, Inc.) by following the manufacturer's instructions. Cells were stimulated by incubation in 4 μg/mL phytohemagglutinin (PHA; Sigma) for 48 to 72 h. Mitogenic stimulation was maintained by the addition of 20 U/mL recombinant human interleukin-2 (rhIL-2; R&D Systems, Inc.) to the culture medium. PHA-stimulated PBMCs from at least two donors were pooled, diluted in fresh medium, and added to 96-well plates at 5×10^4 cells/well. Cells were infected (final multiplicity of infection [MOI] of ≅0.1) in the presence of nine different concentrations of test compounds (triplicate wells/concentration) and incubated for 7 days. To determine the level of virus inhibition, cell-free supernatant samples were collected for analysis of reverse transcriptase activity (Buckheit et al., 1991, AIDS Res Hum Retroviruses 7:295-302). Following removal of supernatant samples, compound cytotoxicity was measured by the addition of 3-(4,5-dimethylthiazol-2-yl)-5-(3-carboxymethoxy-phenyl)-2-(4-sulfophenyl)-2H-tetrazolium (MTS; CellTiter 96 reagent; Promega) by following the manufacturer's instructions.

The next data set relates to HIV-1 NL4-3. The description is as above. The data set is classed as cell-based. As to the method:
as §1

In another data set the test system is PBMCs. Description: Compound cytotoxicity in PBMCs (MTS). As to conditions: Tables 6 and 7 study; read-out: TC50 (the source's name). The format is cell-based, human. As to the method:
as §1

Another data set concerns influenza H1N1. Briefly: Antiviral spectrum: cytopathic effect assay. The format is cell-based. The conditions noted are these: influenza H1N1, up to 100 μM. In general terms: Cytopathic effects are the visible damage that an infection or toxin causes in cultured cells.
A further data set concerns Vaccinia. The format is cell-based. The conditions noted are these: up to 100 μM.
In another data set the test system is Chikungunya. Briefly: Antiviral spectrum: cytopathic effect assay. The format is cell-based.
Another data set concerns HIV-1 IIIB. Briefly: Infection of Sup-T1 cells by HIV-1 IIIB, p24 ELISA. As to conditions: 50 μM, three days.
[1] abbreviates: Human immunodeficiency virus 1, BAL.
Setting [2] is: Human immunodeficiency virus 1, NL43.

The term IC50 denotes the concentration that gives 50% inhibition. Higher therefore signals a need for much substance. A word on the IC90: it is the concentration at which the effect reaches the 90% level. A lower IC90 goes with greater potency.

Consider `O=C(CNC(=O)COc1ccccc1)NCc1ccc(C(=O)N2CCCCC2)cc1` [CMPD-14, N-(2-oxo-2-((4-(piperidine-1-carbonyl)benzyl)amino)ethyl)-2-phenoxyacetamide], for which the “direct interaction with sensor chip-immobilized HIV-1 MA” value (shortened to “direct interaction”) on HIV-1 MA is listed as “directly interacted”. Moreover, the “Antiviral index (TC50/IC50)” value is on record as greater than 3.13 in the data set on HIV-1 Ba-L and greater than 2.53 with HIV-1 NL4-3. Besides, the figures for the IC50 with HIV-1 Ba-L (setting [1]) and with HIV-1 NL4-3 (setting [2]) were 32 µM and 39.6 µM, respectively. Besides, the concentration for an effect of 90% (IC90) in the data set with HIV-1 Ba-L (setting [1]) and in the data set on HIV-1 NL4-3 (setting [2]) was greater than 100 µM each time. Also, the CC50 with PBMCs is greater than 100 µM. The “inhibitory effects on replication” value in the data set on influenza H1N1, in the data set with Vaccinia and in the data set with Chikungunya was “no inhibitory effects” throughout.

For the compound `CCOc1ccc(NC(=O)Cc2cn3ccsc3n2)cc1S(=O)(=O)N1CCCCC1` [CMPD-18, N-(4-ethoxy-3-(piperidin-1-ylsulfonyl)phenyl)-2-(imidazo[2,1-b]thiazol-6-yl)acetamide], at HIV-1 MA (25.1 μM (FIG. 11)), the “interaction with HIV-1 MA versus SUMO” value is “specific interaction”. For the same compound, the “direct interaction” value on HIV-1 MA is given as “directly interacted”. Besides, the “inhibitory effects on replication” value in the data set with influenza H1N1, in the data set with Vaccinia and in the data set on Chikungunya was “no inhibitory effects” in each case. In the data set with HIV-1 IIIB, the “HIV-1 replication (p24), in words” value is recorded as “inhibited”.

Consider `Cc1ccc(NC(=O)CN2CCN(Cc3nc(-c4ccc(F)cc4)no3)CC2)cc1` [CMPD-7, 2-(4-((3-(4-fluorophenyl)-1,2,4-oxadiazol-5-yl)methyl)piperazin-1-yl)-N-(p-tolyl)acetamide], for which, at HIV-1 MA, the “direct interaction” value was “directly interacted”. Also, the “inhibitory effects on replication” value with influenza H1N1, in the data set on Vaccinia and in the data set on Chikungunya was “no inhibitory effects” throughout.

The values above are taken from patent US20130109698A1, “Small Molecule Inhibitors of Functions of the HIV-1 Matrix Protein” (priority 2010, published 2013).
